According to patent publication US9834558B2, “Substituted bridged urea analogs as sirtuin modulators” (GLAXOSMITHKLINE LLC, priority 2013, dated 2017):
Where a name gives a salt, the structure may show the parent alone.

Target: T1, SIRT1 (Homo sapiens, UniProt Q96EB6)
T1 sequence (Q96EB6 1-747): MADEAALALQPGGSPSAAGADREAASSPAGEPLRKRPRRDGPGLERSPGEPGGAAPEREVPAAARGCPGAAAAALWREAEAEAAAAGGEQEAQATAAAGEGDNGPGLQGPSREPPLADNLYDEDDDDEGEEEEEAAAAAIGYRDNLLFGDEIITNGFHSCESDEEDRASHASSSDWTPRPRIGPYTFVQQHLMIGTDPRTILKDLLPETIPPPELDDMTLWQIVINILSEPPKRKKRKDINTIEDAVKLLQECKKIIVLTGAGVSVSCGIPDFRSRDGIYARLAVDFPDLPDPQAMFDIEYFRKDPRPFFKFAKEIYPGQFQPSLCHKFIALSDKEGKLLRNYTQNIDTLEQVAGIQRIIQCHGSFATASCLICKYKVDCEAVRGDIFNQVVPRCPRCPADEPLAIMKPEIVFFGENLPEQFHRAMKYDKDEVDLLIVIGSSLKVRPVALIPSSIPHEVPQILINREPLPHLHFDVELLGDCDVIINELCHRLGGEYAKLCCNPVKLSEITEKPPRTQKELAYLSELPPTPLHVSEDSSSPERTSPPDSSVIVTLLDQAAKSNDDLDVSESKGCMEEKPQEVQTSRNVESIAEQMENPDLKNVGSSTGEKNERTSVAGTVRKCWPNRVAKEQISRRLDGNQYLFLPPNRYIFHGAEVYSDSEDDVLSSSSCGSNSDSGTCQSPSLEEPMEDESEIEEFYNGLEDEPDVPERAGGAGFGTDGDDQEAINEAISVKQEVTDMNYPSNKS
Experiment: Trp mass spectrometry assay of SIRT1 activation
Type: biochemical
Details: for TRP Activity (EC1.5) / Emax: Trp peptide assay; for TRP Activity (EC1.5): EC1.5 = concentration that results in 150% activation of SIRT1; for Emax: maximum activity relative to control (100%), read-out: TRP MAX RESP (percent maximum fold activation)
Source text: Mass spectrometry based assays were used to identify modulators of SIRT1 activity. […] The peptide was labeled with the fluorophore STMR (excitation 540 nm/emission 580 nm) at the C-terminus. The sequence of the peptide substrate was based on p53 with several modifications. In addition, the methionine residue naturally present in the sequence was replaced with the norleucine because the methionine may be susceptible to oxidation during synthesis and purification. The Trp based assay utilized a peptide having an amino acid residues as follows: Ac-R-H-K-K(Ac)-W-NH2 (SEQ ID NO: 2).
The Trp mass spectrometry assay was conducted as follows. 0.5 μM peptide substrate and 120 μM βNAD^+ were incubated with 10 nM SIRT1 for 25 minutes at 25° C. in a reaction buffer (50 mM HEPES pH 7.5, […], 1 mM DTT, 0.05% BSA). The SIRT1 protein was obtained by cloning the SirT1 gene into a T7-promoter containing vector, which was then expressed in BL21(DE3) bacterial cells and purified as described in further detail below. Test compound was added at varying concentrations to this reaction mixture and the resulting reactions were monitored. After the 25 minute incubation with SIRT1, 10 μL of 10% formic acid was added to stop the reaction. The resulting reactions were sealed and frozen for later mass spec analysis. The relative SIRT1 activity was then determined by measuring the amount of O-acetyl-ADP-ribose (OAADPR) formed (or, alternatively, the amount of deacetylated Trp peptide generated) by the NAD-dependent sirtuin deacetylation reaction in the presence of varying concentrations of the test compound versus control reactions lacking the test compound. The degree to which the test agent activated deacetylation by SIRT1 was expressed as EC1.5 (i.e., the concentration of compound required to increase SIRT1 activity by 50% over the control lacking test compound), and Percent Maximum Activation (i.e., the maximum activity relative to control (100%) obtained for the test compound).
This time point was the same as that used for test compounds and, within the linear range, the endpoint represents a change in velocity.
For the above assay, SIRT1 protein was expressed and purified as follows. The SirT1 gene was cloned into a T7-promoter containing vector and transformed into BL21(DE3). The protein was expressed by induction with 1 mM IPTG as an N-terminal His-tag fusion protein at 18° C. overnight and harvested at 30,000×g. Cells were lysed with lysozyme in lysis buffer (50 mM Tris-HCl, 2 mM Tris[2-carboxyethyl]phosphine (TCEP), 10 μM ZnCl2, 200 mM NaCl) and further treated with sonication for 10 min for complete lysis. The protein was purified over a Ni-NTA column (Amersham) and fractions containing pure protein were pooled, concentrated and run over a sizing column (Sephadex S200 26/60 global). The peak containing soluble protein was collected and run on an Ion-exchange column (MonoQ). Gradient elution (200 mM-500 mM NaCl) yielded pure protein. This protein was concentrated and dialyzed against dialysis buffer (20 mM Tris-HCl, 2 mM TCEP) overnight. The protein was aliquoted and frozen at −80° C. until further use.
“NT” means not tested; “ND” means not determinable.

[1] = Trp peptide substrate, concentration giving 150% activation of SIRT1
[2] = Trp mass spectrometry assay, EC1.5 = concentration of test compound that results in 150% activation of SIRT1

Row | SMILES | TRP Activity (EC1.5) | Emax [%] | other results
1 | O=C(Nc1cnccn1)N1c2cc(N3CCCC(C(F)(F)F)C3)ccc2N2CCC[C@H]1C2 (some centres unmarked) | A (A (EC1.5<1 μM)) | > 150 | –
2 | O=C(Nc1cccc(-c2cnco2)c1)N1c2nc(-c3cccc(C(F)(F)F)c3)ccc2N2CC[C@H]1C2 [68 (1)] | – | – | Tryp AVG EC1.5 (μM) [1]: A (A (EC1.5<1 μM))
3 | Cc1cnc2c(NC(=O)N3c4nc(-c5cccc(C(F)(F)F)c5)ccc4N4CC[C@H]3C4)cccc2n1 [76 (8)] | – | – | Tryp AVG EC1.5 (μM) [1]: A (A (EC1.5<1 μM))
4 | CCn1ncc2c(NC(=O)N3c4nc(-c5cccc(C(F)(F)F)c5)ccc4N4CC[C@H]3C4)cccc21 [81 (9)] | – | – | Tryp AVG EC1.5 (μM) [1]: A (A (EC1.5<1 μM))
5 | O=C(Nc1cccnc1)N1c2nc(-c3cccc(C(F)(F)F)c3)ccc2N2CCC[C@H]1C2 [314 (5)] | – | – | Tryp AVG EC1.5 (μM) (Trp mass spectrometry assay, concentration of test compound giving 150% activation of SIRT1): A (A (EC1.5<1 μM))
6 | NCc1ccc(NC(=O)N2c3nc(-c4cccc(C(F)(F)F)c4)ccc3N3CCC[C@H]2C3)cc1 [444 (4), (9S)—N-(4-(aminomethyl)phenyl)-2-(3-(trifluoromethyl)phenyl)-8,9-dihydro-6H-5,9-methanopyrido[2,3-b][1,4]diazocine-10(7H)-carboxamide hydrochloride] | – | – | Tryp AVG EC1.5 (μM) [2]: A (A (EC1.5<1 μM))
7 | O=C(CCCCCNC(=O)c1ccc(-c2c3ccc(=O)cc-3oc3cc(O)ccc23)c(C(=O)O)c1)NCc1ccc(NC(=O)N2c3nc(-c4cccc(C(F)(F)F)c4)ccc3N3CCC[C@H]2C3)cc1 [546 (3), 2-(6-hydroxy-3-oxo-3H-xanthen-9-yl)-5-((6-oxo-6-((4-((9S)-2-(3-(trifluoromethyl)phenyl)-7,8,9,10-tetra-hydro-6H-5,9-methanopyrido[2,3-b][1,4]diazocine-10-carboxamido)benzyl)amino)hexyl)carbamoyl)benzoic acid] | – | – | Tryp AVG EC1.5 (μM) [2]: B (B (EC1.5 1-25 μM))
8 | O=C(Nc1ccccn1)N1c2nc(-c3cccc(C(F)(F)F)c3)ccc2N2CC[C@H]1C2 [816 (7)] | – | – | Tryp AVG EC1.5 (μM) (concentration giving 150% activation of SIRT1, Trp peptide substrate): A (A (EC1.5<1 μM))
9 | O=C(Nc1cnccn1)N1c2nc(-c3cnn(C4CC4)c3)ccc2N2CC[C@H]1C2 [(9S)-5-(1-cyclopropyl-1H-pyrazol-4-yl)-N-(pyrazin-2-yl)-1,6,8-triazatricyclo[7.2.1.0 {2,7}]dodeca-2(7),3,5-triene-8-carboxamide] | A (A (EC1.5<1 μM)) | > 150 | –
10 | CCn1cc(-c2ccc3c(n2)N(C(=O)Nc2cnccn2)[C@H]2CCN3C2)cn1 [(9S)-5-(1-ethyl-1H-pyrazol-4-yl)-N-(pyrazin-2-yl)-1,6,8-triazatricyclo[7.2.1.0 {2,7}]dodeca-2(7),3,5-triene-8-carboxamide] | B (B (EC1.5 1-25 μM)) | > 150 | –
11 | Cn1ccc(-c2ccc3c(n2)N(C(=O)Nc2cnccn2)[C@H]2CCN3C2)n1 [(9S)-5-(1-methyl-1H-pyrazol-3-yl)-N-(pyrazin-2-yl)-1,6,8-triazatricyclo[7.2.1.0 {2,7}]dodeca-2(7),3,5-triene-8-carboxamide] | B (B (EC1.5 1-25 μM)) | > 150 | –
12 | Cn1cc(-c2ccc3c(n2)N(C(=O)Nc2cnccn2)[C@H]2CCN3C2)cn1 [(9S)-5-(1-methyl-1H-pyrazol-4-yl)-N-(pyrazin-2-yl)-1,6,8-triazatricyclo[7.2.1.0 {2,7}]dodeca-2(7),3,5-triene-8-carboxamide] | B (B (EC1.5 1-25 μM)) | > 150 | –

Continued, in another order:

Row | TRP Activity (EC1.5) | Emax [%] | SMILES | other results
13 | B (B (EC1.5 1-25 μM)) | > 150 | Cc1cc(-c2ccc3c(n2)N(C(=O)Nc2cnccn2)[C@H]2CCN3C2)cnn1 | –
14 | C (C (EC1.5>25 μM)) | < 150 | O=C(O)c1cc(-c2ccc3c(n2)N(C(=O)Nc2cnccn2)[C@H]2CCN3C2)ccn1 [4-[(9S)-8-[(pyrazin-2-yl)carbamoyl]-1,6,8-triazatricyclo[7.2.1.0 {2,7}]dodeca-2(7),3,5-trien-5-yl]pyridine-2-carboxylic acid] | –
15 | B (B (EC1.5 1-25 μM)) | > 150 | Cc1cc(-c2ccc3c(n2)N(C(=O)Nc2cnccn2)[C@@H]2CCN3C2)ccn1 [(9R)-5-(2-methylpyridin-4-yl)-N-(pyrazin-2-yl)-1,6,8-triazatricyclo[7.2.1.0 {2,7}]dodeca-2(7),3,5-triene-8-carboxamide] | –
16 | B (B (EC1.5 1-25 μM)) | > 150 | Cc1ccc(-c2cc(C)c3c(n2)N(C(=O)Nc2ccccn2)[C@H]2CCN3C2)cn1 [(9S)-3-methyl-5-(6-methylpyridin-3-yl)-N-(pyridin-2-yl)-1,6,8-triazatricyclo[7.2.1.0^{2,7}]dodeca-2,4,6-triene-8-carboxamide] | –
17 | B (B (EC1.5 1-25 μM)) | > 150 | Cc1ccc(-c2cc(C)c3c(n2)N(C(=O)Nc2cccnc2)[C@H]2CCN3C2)cn1 [(9S)-3-methyl-5-(6-methylpyridin-3-yl)-N-(pyridin-3-yl)-1,6,8-triazatricyclo[7.2.1.0^{2,7}]dodeca-2,4,6-triene-8-carboxamide] | –
18 | B (B (EC1.5 1-25 μM)) | > 150 | Cn1ccc(-c2ccc3c(n2)N(C(=O)Nc2cnccn2)[C@H]2CCN3C2)cc1=O [(9S)-5-(1-methyl-2-oxo-1,2-dihydropyridin-4-yl)-N-(pyrazin-2-yl)-1,6,8-triazatricyclo[7.2.1.0^{2,7}]dodeca-2(7),3,5-triene-8-carboxamide] | –
19 | B (B (EC1.5 1-25 μM)) | > 150 | Cn1ccc(-c2ccc3c(n2)N(C(=O)Nc2cccnc2)[C@H]2CCN3C2)cc1=O [(9S)-5-(1-methyl-2-oxo-1,2-dihydropyridin-4-yl)-N-(pyridin-3-yl)-1,6,8-triazatricyclo[7.2.1.0 {2,7}]dodeca-2(7),3,5-triene-8-carboxamide] | –
20 | C (C (EC1.5>25 μM)) | < 150 | Cn1cc(-c2ccc3c(n2)N(C(=O)Nc2cnccn2)[C@H]2CCN3C2)ccc1=O [(9S)-5-(1-methyl-6-oxo-1,6-dihydropyridin-3-yl)-N-(pyrazin-2-yl)-1,6,8-triazatricyclo[7.2.1.0^2,7]dodeca-2(7),3,5-triene-8-carboxamide] | –
21 | B (B (EC1.5 1-25 μM)) | > 150 | Cn1cc(-c2ccc3c(n2)N(C(=O)Nc2cccnc2)[C@H]2CCN3C2)ccc1=O [(9S)-5-(1-methyl-6-oxo-1,6-dihydropyridin-3-yl)-N-(pyridin-3-yl)-1,6,8-triazatricyclo[7.2.1.0^2,7]dodeca-2(7),3,5-triene-8-carboxamide] | –
